# Laboratory results: patent US10131652B2, “Pyrimidinyloxy benzene derivatives as herbicides” (E. I. DU PONT DE NEMOURS AND COMPANY, priority 2014, dated 2018)
# Read-outs that look alike come from different tables or passages of the source.
# Tests used:
# Assay type in all cases: in vivo
# [1] = system: pigweed (Amaranthus retroflexus); experiment: Test B pre-/postemergence plant response; conditions: for pest or weed control at 500 g/ha: 500 g ai/ha
# Summary of the method: (§1)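 Evaluation is visual, about 10 days after application, rating injury from 0 (none) to 100 (complete control) relative to untreated controls. Application was a preemergence soil spray on seeded pots or a postemergence spray on one- to two-leaf plants.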
# corn (Zea mays) = experiment: Test B pre-/postemergence plant response; conditions: Zea mays, post-emergence, 240 h
# Summary of the method: as §1
# [2] = system: barnyardgrass (Echinochloa crus-galli); experiment: Test B pre-/postemergence plant response; conditions: for pest or weed control at 500 g/ha: 500 g ai/ha
# Summary of the method: as §1
# [3] = system: wheat (Triticum aestivum); experiment: Test B pre-/postemergence plant response; conditions: Triticum aestivum, post-emergence, 240 h, read-out: Plant response rating, Wheat
# Summary of the method: as §1
# [4] = system: giant foxtail (Setaria faberii); experiment: Test B pre-/postemergence plant response; conditions: for pest or weed control at 500 g/ha: 500 g ai/ha
# Summary of the method: as §1
# [5] = system: blackgrass (Alopecurus myosuroides); experiment: Test D pre-/postemergence plant response; conditions: Alopecurus myosuroides; for pest or weed control at 16 g/ha: 16 g ai/ha; for pest or weed control at 31 g/ha: 31 g ai/ha; for pest or weed control at 62 g/ha: 62 g ai/ha; for pest or weed control at 125 g/ha: 125 g ai/ha
# Summary of the method: (§2)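 Each compound, in non-phytotoxic solvent with surfactant, was sprayed onto soil right after sowing or onto young plants 2 to 18 cm tall. After 13 to 15 days under greenhouse conditions, effects were judged visually against controls on a 0 (no effect) to 100 (complete control) scale.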
# [6] = system: lambsquarters (Chenopodium album); experiment: Test D pre-/postemergence plant response; conditions: Chenopodium album; for pest or weed control at 31 g/ha: 31 g ai/ha; for pest or weed control at 62 g/ha: 62 g ai/ha; for pest or weed control at 125 g/ha: 125 g ai/ha
# Summary of the method: as §2
# [7] = system: velvetleaf (Abutilon theophrasti); experiment: Test D pre-/postemergence plant response; conditions: Abutilon theophrasti; for pest or weed control at 125 g/ha: 125 g ai/ha
# Summary of the method: as §2
# [8] = Preemergence, 125 g ai/ha, 0 to 100 scale (0 no effect, 100 complete control)
# [9] = 125 g ai/ha, postemergence, 0 to 100 scale, 0 no effect, 100 complete control
# [10] = Postemergence, 500 g ai/ha, 0 to 100 scale (0 no effect, 100 complete control)
# [11] = post-emergence, Postemergence, scale 0 to 100 (0 no effect, 100 complete control), read-out: Blackgrass plant response rating
# [12] = post-emergence, Postemergence, scale 0 to 100, 0 no effect, 100 complete control, read-out: Plant response rating, Blackgrass
# [13] = pre-emergence, Preemergence, scale 0 to 100 (0 no effect, 100 complete control), read-out: Plant response rating, Blackgrass
# [14] = post-emergence, Postemergence, scale 0 to 100, 0 no effect, 100 complete control, read-out: Plant response rating, Lambsquarters
# [15] = pre-emergence, Preemergence, scale 0 to 100 (0 no effect, 100 complete control), read-out: Plant response rating, Lambsquarters
smiles,measurement,setting,value
"Fc1cccc(Oc2ncc(Cl)cn2)c1-c1cc(C(F)(F)F)on1 [Compound 168, 5-chloro-2-[2-[5-(trifluoromethyl)-3-isoxazolyl]-3-fluorophenoxy]pyrimidine]",pest or weed control at 125 g/ha,"[1]; Amaranthus retroflexus, post-emergence, 240 h, 125 g ai/ha, postemergence, 0 to 100 scale, 0 no effect, 100 complete control, read-out: Plant response rating, Pigweed",100%
same,pest or weed control at 500 g/ha,"[1]; Amaranthus retroflexus, post-emergence, 240 h, Postemergence, 0 to 100 scale (0 no effect, 100 complete control), read-out: Plant response rating, Pigweed",100%
same,pest or weed control at 500 g/ha,"[1]; Amaranthus retroflexus, pre-emergence, 240 h, Preemergence, 0 to 100 scale where 0 is no effect and 100 is complete control, read-out: Plant response rating, Pigweed",100%
same,Pigweed plant response rating,[1]; [8],100
same,"Corn plant response rating (crop injury, 0 = no effect, 100 = complete kill) at 125 g/ha",corn (Zea mays); [9],100%
same,"Corn plant response rating (crop injury, 0 = no effect, 100 = complete kill) at 500 g/ha",corn (Zea mays); [10],100%
same,pest or weed control at 125 g/ha,"[2]; Echinochloa crus-galli, post-emergence, 240 h, 125 g ai/ha, postemergence, 0 to 100 scale, 0 no effect, 100 complete control, read-out: Plant response rating, Barnyardgrass",100%
same,pest or weed control at 500 g/ha,"[2]; Echinochloa crus-galli, post-emergence, 240 h, Postemergence, 0 to 100 scale (0 no effect, 100 complete control), read-out: Plant response rating, Barnyardgrass",100%
same,pest or weed control at 500 g/ha,"[2]; Echinochloa crus-galli, pre-emergence, 240 h, Preemergence, 0 to 100 scale where 0 is no effect and 100 is complete control, read-out: Plant response rating, Barnyardgrass",100%
same,Barnyardgrass plant response rating,[2]; [8],100
same,plant injury at 125 g/ha,[3]; [9],100%
same,plant injury at 500 g/ha,[3]; [10],100%
same,"Foxtail, Giant plant response rating",[4]; [8],100
same,pest or weed control at 125 g/ha,"[4]; Setaria faberi, post-emergence, 240 h, 125 g ai/ha, postemergence, 0 to 100 scale, 0 no effect, 100 complete control, read-out: Plant response rating, Foxtail, Giant",100%
same,pest or weed control at 500 g/ha,"[4]; Setaria faberi, post-emergence, 240 h, Postemergence, 0 to 100 scale (0 no effect, 100 complete control), read-out: Plant response rating, Foxtail, Giant",100%
same,pest or weed control at 500 g/ha,"[4]; Setaria faberi, pre-emergence, 240 h, Preemergence, 0 to 100 scale where 0 is no effect and 100 is complete control, read-out: Plant response rating, Foxtail, Giant",100%
same,pest or weed control at 16 g/ha,[5]; [11],10%
same,pest or weed control at 31 g/ha,[5]; [11],15%
same,pest or weed control at 62 g/ha,[5]; [12],15%
same,pest or weed control at 125 g/ha,[5]; [12],20%
same,pest or weed control at 125 g/ha,"[5]; pre-emergence, Preemergence, read-out: Plant response rating (scale 0 to 100), Blackgrass",90%
same,pest or weed control at 16 g/ha,[5]; [13],85%
same,pest or weed control at 31 g/ha,[5]; [13],90%
same,pest or weed control at 62 g/ha,[5]; [13],90%
same,pest or weed control at 31 g/ha,"[6]; post-emergence, Postemergence, scale 0 to 100 (0 no effect, 100 complete control), read-out: Lambsquarters plant response rating",85%
same,pest or weed control at 62 g/ha,[6]; [14],85%
same,pest or weed control at 125 g/ha,[6]; [14],90%
same,pest or weed control at 125 g/ha,"[6]; pre-emergence, Preemergence, read-out: Plant response rating (scale 0 to 100), Lambsquarters",98%
same,pest or weed control at 16 g/ha,"[6]; pre-emergence, Preemergence, 16 g ai/ha, scale 0 to 100 (0 no effect, 100 complete control), read-out: Plant response rating, Lambsquarters",90%
same,pest or weed control at 31 g/ha,[6]; [15],100%
same,pest or weed control at 62 g/ha,[6]; [15],100%
same,pest or weed control at 31 g/ha,"[7]; post-emergence, Postemergence, 31 g ai/ha, scale 0 to 100 (0 no effect, 100 complete control), read-out: Velvetleaf plant response rating",40%
same,pest or weed control at 62 g/ha,"[7]; post-emergence, Postemergence, 62 g ai/ha, scale 0 to 100, 0 no effect, 100 complete control, read-out: Plant response rating, Velvetleaf",45%
same,pest or weed control at 125 g/ha,"[7]; post-emergence, Postemergence, scale 0 to 100, 0 no effect, 100 complete control, read-out: Plant response rating, Velvetleaf",90%
same,pest or weed control at 125 g/ha,"[7]; pre-emergence, Preemergence, read-out: Plant response rating (scale 0 to 100), Velvetleaf",100%
